From ChEMBL document CHEMBL1130203, “Novel fluoroquinolone antibacterial agents containing oxime-substituted (aminomethyl)pyrrolidines: synthesis and antibacterial activity of 7-(4-(aminomethyl)-3-(methoxyimino)pyrrolidin-1-yl)-1-cyclopropyl-6- fluoro-4-oxo-1,4-dihydro[1,8]naphthyridine-3-carboxylic acid (LB20304)” (J Med Chem, 1997)
Values after ≈ are worked out from the molar mass of the structure shown.

These compounds were tested on Acinetobacter calcoaceticus (assay: Minimum inhibitory concentration (MIC) against Acinetobacter calcoaceticus 15473). Conditions: Acinetobacter calcoaceticus; read-out: MIC.
Format: functional

Row | SMILES | MIC [µg/mL]
1 | CO/N=C1\CN(c2c(F)cc3c(=O)c(C(=O)O)cn(C4CC4)c3c2OC)CC1CN (stereo unspecified) | 0.25 (≈ 0.597 µM)
2 | CO/N=C1\CN(c2nc3c(cc2F)c(=O)c(C(=O)O)cn3-c2ccc(F)cc2F)CC1CN (stereo unspecified) | 0.13 (≈ 0.282 µM)
3 | CNCC1CN(c2nc3c(cc2F)c(=O)c(C(=O)O)cn3C2CC2)C/C1=N\OC (stereo unspecified) | 1 (≈ 2.48 µM)
4 | CCO/N=C1\CN(c2nc3c(cc2F)c(=O)c(C(=O)O)cn3C2CC2)CC1CN (stereo unspecified) | 0.016 (≈ 0.0397 µM)

These compounds were tested on Bacillus subtilis (assay: Minimum inhibitory concentration (MIC) against Bacillus subtilis ATCC 6633). Conditions: not given.
Format: functional

Row | SMILES | MIC [µg/mL]
5 | CO/N=C1\CN(c2c(F)cc3c(=O)c(C(=O)O)cn(C4CC4)c3c2OC)CC1CN (stereo unspecified) | 0.031 (≈ 0.0741 µM)
6 | CO/N=C1\CN(c2nc3c(cc2F)c(=O)c(C(=O)O)cn3-c2ccc(F)cc2F)CC1CN (stereo unspecified) | 0.016 (≈ 0.0347 µM)
7 | CNCC1CN(c2nc3c(cc2F)c(=O)c(C(=O)O)cn3C2CC2)C/C1=N\OC (stereo unspecified) | 0.25 (≈ 0.62 µM)
8 | CCO/N=C1\CN(c2nc3c(cc2F)c(=O)c(C(=O)O)cn3C2CC2)CC1CN (stereo unspecified) | < 0.008

What follows are compounds tested on Escherichia coli (assay: Minimum inhibitory concentration (MIC) against Escherichia coli 10536). Conditions: not given.
Format: functional

Row | SMILES | MIC [µg/mL]
9 | CO/N=C1\CN(c2c(F)cc3c(=O)c(C(=O)O)cn(C4CC4)c3c2OC)CC1CN (stereo unspecified) | 0.063 (≈ 0.151 µM)
10 | CO/N=C1\CN(c2nc3c(cc2F)c(=O)c(C(=O)O)cn3-c2ccc(F)cc2F)CC1CN (stereo unspecified) | 0.063 (≈ 0.137 µM)
11 | CNCC1CN(c2nc3c(cc2F)c(=O)c(C(=O)O)cn3C2CC2)C/C1=N\OC (stereo unspecified) | 0.063 (≈ 0.156 µM)
12 | CCO/N=C1\CN(c2nc3c(cc2F)c(=O)c(C(=O)O)cn3C2CC2)CC1CN (stereo unspecified) | < 0.008

What follows are compounds tested on Escherichia coli (assay: Minimum inhibitory concentration (MIC) against Escherichia coli 3190Y). Conditions: not given.
Format: functional

Row | SMILES | MIC [µg/mL]
13 | CO/N=C1\CN(c2c(F)cc3c(=O)c(C(=O)O)cn(C4CC4)c3c2OC)CC1CN (stereo unspecified) | 0.031 (≈ 0.0741 µM)
14 | CO/N=C1\CN(c2nc3c(cc2F)c(=O)c(C(=O)O)cn3-c2ccc(F)cc2F)CC1CN (stereo unspecified) | 0.008 (≈ 0.0173 µM)
15 | CNCC1CN(c2nc3c(cc2F)c(=O)c(C(=O)O)cn3C2CC2)C/C1=N\OC (stereo unspecified) | 0.063 (≈ 0.156 µM)
16 | CCO/N=C1\CN(c2nc3c(cc2F)c(=O)c(C(=O)O)cn3C2CC2)CC1CN (stereo unspecified) | < 0.008

What follows are compounds tested on Escherichia coli (assay: Minimum inhibitory concentration (MIC) against Escherichia coli TEM9 2639E). Conditions: Escherichia coli; read-out: MIC.
Format: functional

Row | SMILES | MIC [µg/mL]
17 | CO/N=C1\CN(c2c(F)cc3c(=O)c(C(=O)O)cn(C4CC4)c3c2OC)CC1CN (stereo unspecified) | 0.25 (≈ 0.597 µM)
18 | CO/N=C1\CN(c2nc3c(cc2F)c(=O)c(C(=O)O)cn3-c2ccc(F)cc2F)CC1CN (stereo unspecified) | 0.25 (≈ 0.542 µM)
19 | CNCC1CN(c2nc3c(cc2F)c(=O)c(C(=O)O)cn3C2CC2)C/C1=N\OC (stereo unspecified) | 0.5 (≈ 1.24 µM)
20 | CCO/N=C1\CN(c2nc3c(cc2F)c(=O)c(C(=O)O)cn3C2CC2)CC1CN (stereo unspecified) | 0.031 (≈ 0.0768 µM)

The compounds below were run on Klebsiella aerogenes (assay: Minimum inhibitory concentration (MIC) against Klebsiella aerogenes 1082E). Conditions: Klebsiella aerogenes; read-out: MIC.
Format: functional

Row | SMILES | MIC [µg/mL]
21 | CO/N=C1\CN(c2c(F)cc3c(=O)c(C(=O)O)cn(C4CC4)c3c2OC)CC1CN (stereo unspecified) | 0.25 (≈ 0.597 µM)
22 | CO/N=C1\CN(c2nc3c(cc2F)c(=O)c(C(=O)O)cn3-c2ccc(F)cc2F)CC1CN (stereo unspecified) | 0.25 (≈ 0.542 µM)
23 | CNCC1CN(c2nc3c(cc2F)c(=O)c(C(=O)O)cn3C2CC2)C/C1=N\OC (stereo unspecified) | 0.5 (≈ 1.24 µM)
24 | CCO/N=C1\CN(c2nc3c(cc2F)c(=O)c(C(=O)O)cn3C2CC2)CC1CN (stereo unspecified) | 0.031 (≈ 0.0768 µM)

These compounds were tested on Pseudomonas aeruginosa (assay: Minimum inhibitory concentration (MIC) against Pseudomonas aeruginosa 1912E). Conditions: Pseudomonas aeruginosa; read-out: MIC.
Format: functional

Row | SMILES | MIC [µg/mL]
25 | CO/N=C1\CN(c2c(F)cc3c(=O)c(C(=O)O)cn(C4CC4)c3c2OC)CC1CN (stereo unspecified) | 2 (≈ 4.78 µM)
26 | CO/N=C1\CN(c2nc3c(cc2F)c(=O)c(C(=O)O)cn3-c2ccc(F)cc2F)CC1CN (stereo unspecified) | 0.5 (≈ 1.08 µM)
27 | CNCC1CN(c2nc3c(cc2F)c(=O)c(C(=O)O)cn3C2CC2)C/C1=N\OC (stereo unspecified) | 2 (≈ 4.96 µM)
28 | CCO/N=C1\CN(c2nc3c(cc2F)c(=O)c(C(=O)O)cn3C2CC2)CC1CN (stereo unspecified) | 0.5 (≈ 1.24 µM)

The compounds below were run on Staphylococcus aureus (assay: Minimum inhibitory concentration (MIC) against Staphylococcus aureus 241). Conditions: Staphylococcus aureus; read-out: MIC.
Format: functional

Row | SMILES | MIC [µg/mL]
29 | CO/N=C1\CN(c2c(F)cc3c(=O)c(C(=O)O)cn(C4CC4)c3c2OC)CC1CN (stereo unspecified) | 1 (≈ 2.39 µM)
30 | CO/N=C1\CN(c2nc3c(cc2F)c(=O)c(C(=O)O)cn3-c2ccc(F)cc2F)CC1CN (stereo unspecified) | 8 (≈ 17.3 µM)
31 | CNCC1CN(c2nc3c(cc2F)c(=O)c(C(=O)O)cn3C2CC2)C/C1=N\OC (stereo unspecified) | 128 (≈ 317 µM)
32 | CCO/N=C1\CN(c2nc3c(cc2F)c(=O)c(C(=O)O)cn3C2CC2)CC1CN (stereo unspecified) | 2 (≈ 4.96 µM)

The compounds below were run on Staphylococcus aureus (assay: Minimum inhibitory concentration (MIC) against Staphylococcus aureus 6538p.). Conditions: not given.
Format: functional

Row | SMILES | MIC [µg/mL]
33 | CO/N=C1\CN(c2c(F)cc3c(=O)c(C(=O)O)cn(C4CC4)c3c2OC)CC1CN (stereo unspecified) | 0.031 (≈ 0.0741 µM)
34 | CO/N=C1\CN(c2nc3c(cc2F)c(=O)c(C(=O)O)cn3-c2ccc(F)cc2F)CC1CN (stereo unspecified) | 0.031 (≈ 0.0672 µM)
35 | CNCC1CN(c2nc3c(cc2F)c(=O)c(C(=O)O)cn3C2CC2)C/C1=N\OC (stereo unspecified) | 0.063 (≈ 0.156 µM)
36 | CCO/N=C1\CN(c2nc3c(cc2F)c(=O)c(C(=O)O)cn3C2CC2)CC1CN (stereo unspecified) | < 0.008

What follows are compounds tested on Staphylococcus epidermidis (assay: Minimum inhibitory concentration (MIC) against Staphylococcus epidermidis 887E). Conditions: not given.
Format: functional

Row | SMILES | MIC [µg/mL]
37 | CO/N=C1\CN(c2c(F)cc3c(=O)c(C(=O)O)cn(C4CC4)c3c2OC)CC1CN (stereo unspecified) | 0.031 (≈ 0.0741 µM)
38 | CO/N=C1\CN(c2nc3c(cc2F)c(=O)c(C(=O)O)cn3-c2ccc(F)cc2F)CC1CN (stereo unspecified) | 0.016 (≈ 0.0347 µM)
39 | CNCC1CN(c2nc3c(cc2F)c(=O)c(C(=O)O)cn3C2CC2)C/C1=N\OC (stereo unspecified) | 0.13 (≈ 0.322 µM)
40 | CCO/N=C1\CN(c2nc3c(cc2F)c(=O)c(C(=O)O)cn3C2CC2)CC1CN (stereo unspecified) | < 0.008

Each compound was assayed on Staphylococcus epidermidis (assay: Minimum inhibitory concentration (MIC) against Staphylococcus epidermidis 178). Conditions: Staphylococcus epidermidis; read-out: MIC.
Format: functional

Row | SMILES | MIC [µg/mL]
41 | CO/N=C1\CN(c2c(F)cc3c(=O)c(C(=O)O)cn(C4CC4)c3c2OC)CC1CN (stereo unspecified) | 1 (≈ 2.39 µM)
42 | CO/N=C1\CN(c2nc3c(cc2F)c(=O)c(C(=O)O)cn3-c2ccc(F)cc2F)CC1CN (stereo unspecified) | 8 (≈ 17.3 µM)
43 | CNCC1CN(c2nc3c(cc2F)c(=O)c(C(=O)O)cn3C2CC2)C/C1=N\OC (stereo unspecified) | 128 (≈ 317 µM)
44 | CCO/N=C1\CN(c2nc3c(cc2F)c(=O)c(C(=O)O)cn3C2CC2)CC1CN (stereo unspecified) | 2 (≈ 4.96 µM)

The compounds below were run on Staphylococcus aureus (assay: Minimum inhibitory concentration (MIC) against Staphylococcus aureus giorgio). Conditions: not given.
Format: functional

Row | SMILES | MIC [µg/mL]
45 | CO/N=C1\CN(c2c(F)cc3c(=O)c(C(=O)O)cn(C4CC4)c3c2OC)CC1CN (stereo unspecified) | 0.016 (≈ 0.0382 µM)
46 | CO/N=C1\CN(c2nc3c(cc2F)c(=O)c(C(=O)O)cn3-c2ccc(F)cc2F)CC1CN (stereo unspecified) | 0.031 (≈ 0.0672 µM)
47 | CNCC1CN(c2nc3c(cc2F)c(=O)c(C(=O)O)cn3C2CC2)C/C1=N\OC (stereo unspecified) | 0.13 (≈ 0.322 µM)
48 | CCO/N=C1\CN(c2nc3c(cc2F)c(=O)c(C(=O)O)cn3C2CC2)CC1CN (stereo unspecified) | < 0.008

The compounds below were run on Enterococcus faecalis (assay: Minimum inhibitory concentration (MIC) against Streptococcus faecalis 29212). Conditions: Enterococcus faecalis; read-out: MIC.
Format: functional

Row | SMILES | MIC [µg/mL]
49 | CO/N=C1\CN(c2c(F)cc3c(=O)c(C(=O)O)cn(C4CC4)c3c2OC)CC1CN (stereo unspecified) | 0.063 (≈ 0.151 µM)
50 | CO/N=C1\CN(c2nc3c(cc2F)c(=O)c(C(=O)O)cn3-c2ccc(F)cc2F)CC1CN (stereo unspecified) | 0.13 (≈ 0.282 µM)
51 | CNCC1CN(c2nc3c(cc2F)c(=O)c(C(=O)O)cn3C2CC2)C/C1=N\OC (stereo unspecified) | 0.5 (≈ 1.24 µM)
52 | CCO/N=C1\CN(c2nc3c(cc2F)c(=O)c(C(=O)O)cn3C2CC2)CC1CN (stereo unspecified) | 0.063 (≈ 0.156 µM)

The compounds below were run on Enterobacter cloacae (assay: Minimum inhibitory concentration (MIC) against Enterobacter cloacae P99). Conditions: not given.
Format: functional

Row | SMILES | MIC [µg/mL]
53 | CO/N=C1\CN(c2c(F)cc3c(=O)c(C(=O)O)cn(C4CC4)c3c2OC)CC1CN (stereo unspecified) | 0.063 (≈ 0.151 µM)
54 | CO/N=C1\CN(c2nc3c(cc2F)c(=O)c(C(=O)O)cn3-c2ccc(F)cc2F)CC1CN (stereo unspecified) | 0.063 (≈ 0.137 µM)
55 | CNCC1CN(c2nc3c(cc2F)c(=O)c(C(=O)O)cn3C2CC2)C/C1=N\OC (stereo unspecified) | 0.13 (≈ 0.322 µM)
56 | CCO/N=C1\CN(c2nc3c(cc2F)c(=O)c(C(=O)O)cn3C2CC2)CC1CN (stereo unspecified) | < 0.008
